Experimental data taken from US20240009191A1, “METHOD AND COMPOSITION FOR THE TREATMENT OF DISEASE” (DIMERIX BIOSCIENCE PTY LTD, priority 2019, published 2024).

What was measured:
AT1R-CXCR2 heteromer = target: T1, AT1R-CXCR2 heteromer (Homo sapiens, UniProt P25025+P30556); assay: BRET Gi coupling (Receptor-HIT), CXCR2/Rluc8, Venus/mGsi and HA-AT1R, HEK293FT cells; type: cell-based
T1 sequence (P25025 1-360): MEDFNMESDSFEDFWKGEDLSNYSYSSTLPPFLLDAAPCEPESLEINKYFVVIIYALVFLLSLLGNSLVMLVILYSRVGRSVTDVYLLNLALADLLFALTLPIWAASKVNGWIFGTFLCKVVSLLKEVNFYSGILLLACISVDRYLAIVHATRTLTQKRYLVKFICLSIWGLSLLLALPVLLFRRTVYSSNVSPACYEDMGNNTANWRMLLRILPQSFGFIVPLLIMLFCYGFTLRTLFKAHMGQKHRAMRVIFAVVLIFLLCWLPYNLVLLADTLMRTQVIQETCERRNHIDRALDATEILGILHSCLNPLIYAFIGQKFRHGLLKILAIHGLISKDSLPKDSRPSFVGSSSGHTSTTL
T1 sequence (P30556 1-359): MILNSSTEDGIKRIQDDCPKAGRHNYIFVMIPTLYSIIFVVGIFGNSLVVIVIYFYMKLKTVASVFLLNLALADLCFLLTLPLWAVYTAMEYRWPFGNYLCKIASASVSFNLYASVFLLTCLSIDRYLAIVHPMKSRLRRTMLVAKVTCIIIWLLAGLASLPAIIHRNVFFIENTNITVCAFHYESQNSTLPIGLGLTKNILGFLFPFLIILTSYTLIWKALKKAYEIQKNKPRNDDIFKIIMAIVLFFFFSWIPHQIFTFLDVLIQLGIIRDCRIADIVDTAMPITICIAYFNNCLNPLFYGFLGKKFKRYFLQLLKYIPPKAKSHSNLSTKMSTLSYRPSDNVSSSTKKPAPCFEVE
Protocol: HEK293FT cells were seeded in 6-well plates at a density of approximately 700,000 cells/well and maintained at 37° C., 5% CO2 in Complete Media (DMEM containing 0.3 mg/ml glutamine, 100 IU/ml penicillin and 100 μg/ml streptomycin (Gibco/Thermo Fisher)) supplemented with 10% fetal calf serum (FCS; Bovogen). […] BRET measurements were taken at 37° C. using the LUMlstarTM or CLARIOstarTM (BMG Labtech). Filtered light emissions were measured for 1 s in each of the 'donor wavelength window' (460-490 nm for LUMlstarTM or 410-490 nm for CLARIOstarTM) and 'acceptor wavelength window' (520-550 nm for LUMlstarTM or 520-620 nm for CLARIOstarTM). The BRET signal observed between interacting proteins is normalized by subtracting the background BRET ratio. This can be done in one of two ways (see Pfleger et al. (2006) Cell Signal 18:1664-1670; Pfleger et al. (2006) Nat Protoc 1:336-344): 1) the ratio of the 520-550 nm or 520-620 nm emission over the 460-490 nm or 410-490 nm emission for a cell sample containing only the donor construct is subtracted from the same ratio for a sample containing the interacting acceptor and donor fusion proteins; 2) the ratio of the 520-550 nm or 520-620 nm emission over the 460-490 nm or 410-490 nm emission for a cell sample treated with vehicle is subtracted from the same ratio for a second aliquot of the same cell sample treated with ligand. […]

AT1R and CXCR2 = target: T2, AT1R and CXCR2 (Homo sapiens, UniProt P25025+P30556); assay: IP1 accumulation, HEK293 cells stably-expressing CXCR2 and transiently-transfected with AT1R; type: cell-based
T2 sequence (P30556 1-359): T1 sequence (P30556 1-359)
T2 sequence (P25025 1-360): T1 sequence (P25025 1-360)

Angiotensin II [AngII]
ligand-induced BRET signal, CXCR2/Rluc8 and Venus/mGsi (AT1R-CXCR2 heteromer): approximately 0.05
Rmax, IP1 accumulation (AT1R and CXCR2): 209 nM
